According to patent US20250302768A1, “NANOPARTICLE DOPED POLYETHYLENE GLYCOL BASED GELS AND MEDICAL DEVICES FOR DRUG DELIVERY” (priority 2022, published 2025):

Legend:
Staphylococcus aureus = conditions: reference values the eluted concentrations are compared with; cited from earlier work
[1] = drug elution from cured MAPLAPEG gel strips in phosphate buffered saline; type: physicochemical; conditions: eluted from MAPLAPEG polymers; 250 mg gel strip in 5 ml phosphate buffered saline; sampled 0.25 to 28 days; n=4
Protocol: Methacrylated poly(lactic acid-co-ethylene glycol) (MAPLAPEG) macromers were synthesized with microwave synthesis with a lactate degree of polymerization (DP) of 4 and PEG400 (DP 9.5). Chitosan nanoparticles (CNP) were synthesized using ionic gelation and ketorolac tromethamine was loaded into the CNPs. For polymerization, the MAPLAPEG macromers were mixed with 10 mg/mL Phenylbis(2,4,6-trimethylbenzoyl) phosphine oxide initiator at a ratio of 1 μL each 20 μL of macromer and exposed to UV radiation at 395 nm for two minutes to form a 250 mg gel strip with the dimensions of 5 mm×3 mm×20 mm. The test groups were formed as follows: (1) gel and antibiotic; (2) gel loaded with antibiotic and CNPs; (3) gel loaded with antibiotic and (4) gel and ketorolac loaded CNPs. Gels loaded with only ketorolac loaded CNPs were used as controls for ketorolac elution. […] Eluent concentrations were measured using UV visible spectrometry. Gentamicin sulfate samples were treated with O-phthalaldehyde and the fluorescence was measured after complexation.
FIGS. 1A-1C depict the release rates of vancomycin, gentamicin and ketorolac from the gels loaded only with antibiotics and those loaded also with particles and those loaded with particles containing ketorolac. […] The sample size for each group was four and standard deviation was calculated for each sample group.

| Compound | minimum inhibitory concentration (MIC) (Staphylococcus aureus) | time eluted concentration maintained above the MIC [1] |
| --- | --- | --- |
| CN[C@H](CC(C)C)C(=O)N[C@H]1C(=O)N[C@@H](CC(N)=O)C(=O)N[C@H]2C(=O)N[C@H]3C(=O)N[C@H](C(=O)N[C@H](C(=O)O)c4cc(O)cc(O)c4-c4cc3ccc4O)[C@H](O)c3ccc(c(Cl)c3)Oc3cc2cc(c3O[C@@H]2O[C@H](CO)[C@@H](O)[C@H](O)[C@H]2O[C@H]2C[C@](C)(N)[C@H](O)[C@H](C)O2)Oc2ccc(cc2Cl)[C@H]1O [Vancomycin, vancomycin] | 0.5 to 2 µg/mL | 4 weeks |
| gentamicin | 1.5 to 3 µg/mL | 4 weeks |
